The text below walks through data of US10214511B2, “Quinazolines as potassium ion channel inhibitors” (Bristol-Myers Squibb Company, priority 2009, dated 2019).

Data set [1] addresses Kv 1.5 (Homo sapiens (Human), UniProt P22460). In words: Kv1.5 (IKur) inhibition assay. Format: cell-based. The source says: Assays to determine the degree of activity of a compound as an IKur inhibitor are well known in the art and are described in references such as J. Gen. Physiol., 101(4):513-543 (April 1993), and Br. J. Pharmacol., 115(2):267-274 (May 1995).
Assays to determine the degree of activity of a compound as an inhibitor of other members of the Kv1 subfamily are also well known in the art. For example, inhibition of Kv1.1, Kv1.2 and Kv1.3 can be measured using procedures described by Grissmer, S. et al., Mol. Pharmacol., 45(6):1227-1234 (June 1994); inhibition of Kv1.4 can be measured using procedures described by Petersen, K. R. et al., Pflugers Arch., 437(3):381-392 (February 1999); inhibition of Kv1.6 can be measured using procedures described by Bowlby, M. R. et al., J. Neurophysiol. 73(6):2221-2229 (June 1995); and inhibition of Kv1.7 can be measured using procedures described by Kalman, K. et al., J. Biol. Chem., 273(10):5851-5857 (Mar. 6, 1998).
Compounds of the present invention were tested in one of the assays described immediately above and the results shown in Table 2 below were obtained.

Data set [2] concerns the target ABL1 (Homo sapiens (Human), UniProt P00519). As to the kind of experiment: Caliper Kinase Assay. In kind it is biochemical. Conditions: read-out: LLE_ABL1 (% INH, 50 uM). The source says: (§1) IC50 values were derived by non-linear regression analysis.
For data set [3], the target named is Flt3 (Homo sapiens (Human), UniProt P36888). In words: Caliper Kinase Assay. In kind it is biochemical. Conditions: ATP at Km, peptide 1.5 uM; read-out: LLE Flt3 (IC50).
Excerpt: as §1

Data set [4] concerns the target IGF1R (Homo sapiens (Human), UniProt P08069). In words: Caliper Kinase Assay. In kind it is biochemical. The note with it: ATP at Km, peptide 1.5 uM.
Excerpt: as §1

In data set [5] the target is JAK2 (Homo sapiens (Human), UniProt O60674). As to the kind of experiment: Caliper Kinase Assay. Format: biochemical. Conditions: ATP at Km, peptide 1.5 uM; read-out: LLE_JAK2 (IC50).
Excerpt: as §1

Data set [6] has as its target PIM1 (Homo sapiens (Human), UniProt P11309). In words: Caliper Kinase Assay. Format: biochemical. Conditions: ATP at Km, peptide 1.5 uM.
Excerpt: as §1

For data set [7], the target named is BTK (Homo sapiens (Human), UniProt Q06187). In words: Caliper Kinase Assay. The note with it: ATP at Km, peptide 1.5 uM; read-out: LLE_BTK (IC50). Format: biochemical.
Data set [8] concerns the target CK2A2 (Homo sapiens (Human), UniProt P19784). In words: Caliper Kinase Assay. In kind it is biochemical. Conditions: ATP at Km, peptide 1.5 uM; read-out: LLE_CK2A2 (IC50).
Data set [9] addresses JAK3 (Homo sapiens (Human), UniProt P52333). As to the kind of experiment: Caliper Kinase Assay. In kind it is biochemical. Conditions: ATP at Km, peptide 1.5 uM; read-out: LLE_JAK3 (IC50).
For data set [10], the target named is GSK3B (Homo sapiens (Human), UniProt P49841). As to the kind of experiment: Caliper Kinase Assay. Conditions: ATP at Km, peptide 1.5 uM; read-out: LLE GSK3B (IC50). Format: biochemical. The procedure: (§2) In addition, compounds of the present invention, such as particular compounds disclosed in the preceding examples, were evaluated for their effectiveness as inhibitors of kinase receptor activity.
(§3) The analyses were performed in U-bottom 384-well plates. The final assay volume was 30 μl prepared from 15 μl additions of enzyme and substrates (fluoresceinated peptide and ATP) and test compounds in assay buffer (20 mM HEPES pH 7.4, 10 mM MgCl2, 0.015% Brij35 and 4 mM DTT). The reaction was initiated by the combination of purified protein kinase with substrates and test compounds. The reaction was incubated at room temperature for 60 min. and terminated by adding 30 μl of 35 mM EDTA to each sample. The reaction mixture was analyzed on the Caliper LABCHIP® 3000 (Caliper, Hopkinton, Mass.) by electrophoretic separation of the fluorescent substrate and phosphorylated product. Inhibition data were calculated by comparison to no enzyme control reactions for 100% inhibition and vehicle-only reactions for 0% inhibition. The ATP was used at a final concentration equivalent to the Km and the peptide substrate concentration was 1.5 μM. […] Compounds were dissolved at 10 mM in dimethylsulfoxide (DMSO) and evaluated at eleven concentrations. IC50 values were derived by non-linear regression analysis.

In data set [11] the target is IRAK-4 (Homo sapiens (Human), UniProt Q9NWZ3). In words: Caliper Kinase Assay. In kind it is biochemical. Conditions: ATP at Km, peptide 1.5 uM; read-out: LLE IRAK-4 (IC50). On the procedure: as §2, §3
The target of data set [12] is TPL2 (Homo sapiens (Human), UniProt P41279). In words: Caliper Kinase Assay. Format: biochemical. The note with it: ATP at Km, peptide 1.5 uM; read-out: LLE_TPL2 CAL (IC50). On the procedure: as §2, §3
A short description of data set [13]: Brain penetration across species. In kind it is in vivo.
In data set [14] the target is TAK1 (Homo sapiens (Human), UniProt O43318). As to the kind of experiment: Caliper Kinase Assay. In kind it is biochemical. The note with it: ATP at Km, peptide 1.5 uM; read-out: LLE_TAK1 (IC50).
Excerpt: as §1

Where two headings read alike, the source gives them in different places.

Kv 1.5, sequence (P22460 whole entry): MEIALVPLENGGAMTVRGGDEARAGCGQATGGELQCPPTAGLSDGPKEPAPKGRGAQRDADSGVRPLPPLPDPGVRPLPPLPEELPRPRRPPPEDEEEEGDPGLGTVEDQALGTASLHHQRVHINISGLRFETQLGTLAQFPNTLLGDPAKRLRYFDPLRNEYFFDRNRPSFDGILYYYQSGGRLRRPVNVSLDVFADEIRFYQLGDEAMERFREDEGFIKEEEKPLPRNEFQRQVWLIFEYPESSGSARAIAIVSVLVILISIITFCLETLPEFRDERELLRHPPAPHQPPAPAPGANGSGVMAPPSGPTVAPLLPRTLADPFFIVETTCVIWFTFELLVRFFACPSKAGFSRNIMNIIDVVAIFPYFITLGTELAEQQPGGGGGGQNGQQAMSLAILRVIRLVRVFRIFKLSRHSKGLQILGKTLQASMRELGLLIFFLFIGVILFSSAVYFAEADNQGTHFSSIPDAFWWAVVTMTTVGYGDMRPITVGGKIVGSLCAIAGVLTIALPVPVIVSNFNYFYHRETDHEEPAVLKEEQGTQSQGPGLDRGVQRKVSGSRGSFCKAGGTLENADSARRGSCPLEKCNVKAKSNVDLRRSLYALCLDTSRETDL
JAK2, sequence (O60674 whole entry, species assumed): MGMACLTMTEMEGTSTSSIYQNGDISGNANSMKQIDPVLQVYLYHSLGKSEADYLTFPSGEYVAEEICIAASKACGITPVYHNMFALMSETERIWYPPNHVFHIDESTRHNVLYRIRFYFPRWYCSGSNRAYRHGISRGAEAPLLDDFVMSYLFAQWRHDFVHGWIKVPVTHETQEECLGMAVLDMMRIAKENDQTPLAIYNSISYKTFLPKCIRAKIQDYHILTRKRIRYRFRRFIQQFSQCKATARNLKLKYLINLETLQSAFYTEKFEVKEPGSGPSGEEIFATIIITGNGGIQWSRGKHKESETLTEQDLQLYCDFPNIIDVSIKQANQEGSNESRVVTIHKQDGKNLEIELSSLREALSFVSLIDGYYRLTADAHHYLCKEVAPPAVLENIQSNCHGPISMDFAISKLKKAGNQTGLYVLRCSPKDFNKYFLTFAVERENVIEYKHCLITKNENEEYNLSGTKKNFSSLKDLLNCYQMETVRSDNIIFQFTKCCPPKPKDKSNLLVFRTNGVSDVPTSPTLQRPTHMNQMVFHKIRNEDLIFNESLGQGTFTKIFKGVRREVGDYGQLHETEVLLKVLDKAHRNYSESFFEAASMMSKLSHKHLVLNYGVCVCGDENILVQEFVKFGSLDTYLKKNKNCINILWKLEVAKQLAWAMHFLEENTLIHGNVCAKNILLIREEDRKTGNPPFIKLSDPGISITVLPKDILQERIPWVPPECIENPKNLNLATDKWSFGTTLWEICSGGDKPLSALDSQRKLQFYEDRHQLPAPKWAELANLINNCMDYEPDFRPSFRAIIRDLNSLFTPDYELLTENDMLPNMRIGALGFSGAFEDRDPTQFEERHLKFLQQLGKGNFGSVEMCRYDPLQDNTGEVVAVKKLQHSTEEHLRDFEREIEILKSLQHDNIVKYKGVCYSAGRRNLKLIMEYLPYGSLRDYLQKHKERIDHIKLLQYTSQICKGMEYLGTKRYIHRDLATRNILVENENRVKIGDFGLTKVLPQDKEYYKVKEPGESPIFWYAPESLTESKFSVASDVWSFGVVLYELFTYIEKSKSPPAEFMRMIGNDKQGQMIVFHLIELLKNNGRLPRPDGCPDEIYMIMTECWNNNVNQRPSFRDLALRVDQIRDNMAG
PIM1, sequence (P11309 whole entry, species assumed): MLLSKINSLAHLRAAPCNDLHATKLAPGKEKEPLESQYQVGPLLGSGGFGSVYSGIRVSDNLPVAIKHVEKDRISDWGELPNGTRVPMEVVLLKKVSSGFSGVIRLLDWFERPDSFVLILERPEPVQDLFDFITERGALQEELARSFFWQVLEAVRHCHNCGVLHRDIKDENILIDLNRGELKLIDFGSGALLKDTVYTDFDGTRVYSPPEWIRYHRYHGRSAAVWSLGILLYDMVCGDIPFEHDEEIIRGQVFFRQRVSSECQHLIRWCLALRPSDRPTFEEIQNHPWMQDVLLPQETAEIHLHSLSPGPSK
IGF1R, sequence (P08069 31-1367, species assumed): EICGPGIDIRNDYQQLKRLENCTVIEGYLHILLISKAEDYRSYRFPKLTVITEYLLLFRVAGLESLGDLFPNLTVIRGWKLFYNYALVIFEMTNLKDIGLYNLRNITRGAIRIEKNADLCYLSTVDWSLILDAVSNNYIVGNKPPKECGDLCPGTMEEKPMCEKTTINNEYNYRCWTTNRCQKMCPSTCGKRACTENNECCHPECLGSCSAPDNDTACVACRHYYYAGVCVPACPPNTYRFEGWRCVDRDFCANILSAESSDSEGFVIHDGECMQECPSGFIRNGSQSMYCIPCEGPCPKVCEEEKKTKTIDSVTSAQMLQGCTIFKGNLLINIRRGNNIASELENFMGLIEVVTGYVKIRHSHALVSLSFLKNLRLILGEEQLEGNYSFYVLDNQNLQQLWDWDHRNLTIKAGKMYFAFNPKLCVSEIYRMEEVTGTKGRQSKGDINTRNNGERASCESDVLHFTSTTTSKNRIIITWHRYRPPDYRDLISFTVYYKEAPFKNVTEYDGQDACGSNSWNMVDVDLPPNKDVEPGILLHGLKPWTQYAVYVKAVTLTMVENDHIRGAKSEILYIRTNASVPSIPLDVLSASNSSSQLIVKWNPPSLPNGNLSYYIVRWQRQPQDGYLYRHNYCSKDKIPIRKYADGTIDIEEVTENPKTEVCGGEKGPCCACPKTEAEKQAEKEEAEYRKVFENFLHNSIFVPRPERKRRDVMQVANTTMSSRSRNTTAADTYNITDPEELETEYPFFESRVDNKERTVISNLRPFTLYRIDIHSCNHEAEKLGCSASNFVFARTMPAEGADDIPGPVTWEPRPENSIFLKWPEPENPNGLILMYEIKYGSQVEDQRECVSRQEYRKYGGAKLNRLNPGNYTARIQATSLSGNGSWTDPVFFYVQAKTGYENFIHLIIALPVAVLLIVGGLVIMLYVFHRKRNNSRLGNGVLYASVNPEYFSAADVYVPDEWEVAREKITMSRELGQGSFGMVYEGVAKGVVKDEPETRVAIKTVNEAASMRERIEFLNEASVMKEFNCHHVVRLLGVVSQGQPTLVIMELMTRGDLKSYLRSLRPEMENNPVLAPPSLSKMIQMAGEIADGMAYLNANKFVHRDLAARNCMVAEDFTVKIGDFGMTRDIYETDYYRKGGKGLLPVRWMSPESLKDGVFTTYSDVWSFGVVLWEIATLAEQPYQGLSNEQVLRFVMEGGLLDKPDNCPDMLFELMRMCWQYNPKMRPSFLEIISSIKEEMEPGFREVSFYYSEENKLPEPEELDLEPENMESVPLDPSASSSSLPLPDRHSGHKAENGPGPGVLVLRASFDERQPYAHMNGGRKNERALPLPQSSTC
GSK3B, sequence (P49841 whole entry, species assumed): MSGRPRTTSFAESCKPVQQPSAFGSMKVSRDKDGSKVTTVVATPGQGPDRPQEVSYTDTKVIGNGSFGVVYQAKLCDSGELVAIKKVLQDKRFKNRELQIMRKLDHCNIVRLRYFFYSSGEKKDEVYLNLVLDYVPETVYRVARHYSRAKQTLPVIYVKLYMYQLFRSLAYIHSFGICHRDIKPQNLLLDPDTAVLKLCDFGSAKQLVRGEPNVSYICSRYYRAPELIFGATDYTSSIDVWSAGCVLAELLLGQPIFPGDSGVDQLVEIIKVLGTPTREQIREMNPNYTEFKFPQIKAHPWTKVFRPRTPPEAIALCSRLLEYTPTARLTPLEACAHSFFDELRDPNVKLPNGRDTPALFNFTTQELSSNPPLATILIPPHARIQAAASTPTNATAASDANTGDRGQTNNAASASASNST
TPL2, sequence (P41279 whole entry, species assumed): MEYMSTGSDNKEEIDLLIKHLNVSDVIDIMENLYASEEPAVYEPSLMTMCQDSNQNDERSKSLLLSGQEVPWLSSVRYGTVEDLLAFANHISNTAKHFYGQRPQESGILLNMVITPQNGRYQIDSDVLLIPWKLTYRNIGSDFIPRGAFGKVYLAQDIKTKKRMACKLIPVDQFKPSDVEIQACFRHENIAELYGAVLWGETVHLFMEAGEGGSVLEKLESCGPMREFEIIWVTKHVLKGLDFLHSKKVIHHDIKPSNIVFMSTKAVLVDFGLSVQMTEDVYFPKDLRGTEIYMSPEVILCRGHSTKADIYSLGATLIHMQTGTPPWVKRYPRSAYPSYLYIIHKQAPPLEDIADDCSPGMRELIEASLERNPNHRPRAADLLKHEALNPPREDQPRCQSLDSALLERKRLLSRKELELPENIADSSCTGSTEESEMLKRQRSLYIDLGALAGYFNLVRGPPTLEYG
BTK, sequence (Q06187 whole entry, species assumed): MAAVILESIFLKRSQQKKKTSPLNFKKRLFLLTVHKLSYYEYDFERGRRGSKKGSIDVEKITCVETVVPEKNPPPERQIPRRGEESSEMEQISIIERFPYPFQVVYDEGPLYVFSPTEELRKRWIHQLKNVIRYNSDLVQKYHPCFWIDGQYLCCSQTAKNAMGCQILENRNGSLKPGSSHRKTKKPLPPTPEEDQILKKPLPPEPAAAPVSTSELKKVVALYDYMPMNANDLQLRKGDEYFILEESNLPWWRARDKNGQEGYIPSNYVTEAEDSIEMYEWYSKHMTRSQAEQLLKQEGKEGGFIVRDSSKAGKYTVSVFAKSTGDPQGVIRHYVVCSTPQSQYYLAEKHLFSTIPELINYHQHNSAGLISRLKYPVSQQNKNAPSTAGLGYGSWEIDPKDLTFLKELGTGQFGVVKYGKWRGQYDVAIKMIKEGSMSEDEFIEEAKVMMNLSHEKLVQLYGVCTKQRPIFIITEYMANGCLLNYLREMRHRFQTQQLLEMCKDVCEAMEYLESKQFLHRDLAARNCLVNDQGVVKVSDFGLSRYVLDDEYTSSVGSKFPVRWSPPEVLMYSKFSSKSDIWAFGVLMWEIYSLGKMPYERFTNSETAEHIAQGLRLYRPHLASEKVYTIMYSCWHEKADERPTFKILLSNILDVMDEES

Compound `Clc1nc(Nc2nccs2)c2c(-c3ccccc3)cccc2n1` [Example 38] displayed an inhibition at 0.3 µM in data set [1] of 61.3%.
Still for that read-out and setting: as for `COc1cccc(CNc2nc(Cl)nc3cccc(-c4ccccc4)c23)c1` [Example 134], the figure is 98.4%; as for `FC(F)(F)c1ccc(-c2cccc3nc(Cl)nc(NCc4ccccn4)c23)cc1` [Example 97], 98.7%.
Still for that read-out and setting: as for `CC(Nc1nc(Cl)nc2cccc(-c3ccccc3)c12)c1ccccc1` (stereo not drawn) [Example 130], the figure is 96.2%; as for `c1ccc(-c2cccc3nc(-c4ccc5cc[nH]c5c4)nc(NCc4ccccn4)c23)cc1` [Example 46], 98.7%.
On the same count and under the same terms, as for `CN(C)c1ccc(-c2cccc3nc(Cl)nc(NCc4ccccn4)c23)cc1` [Example 108], the figure is 98.1%.
`c1ccc(CNc2nc(-c3cncnc3)nc3cccc(-c4cccc(N5CCOCC5)c4)c23)nc1` [Example 107]: the inhibition at 0.3 µM in data set [1] was determined as 50.3%.
With `Clc1nc(NCc2ccccn2)c2c(-c3ccccc3)cccc2n1` [Example 19], in data set [2], the inhibition at 50 µM worked out at 32.4%. Also, the 50% inhibitory concentration (IC50) in data set [3] worked out at 10.1 µM; in [4] (first section of Table 4, read-out: LLE IGF1R (IC50)), 17.6 µM; in data set [4] (second section of Table 4, read-out: LLE_IGF1R (IC50)), 17.6 µM; in [5], 17.8 µM; in [6] (first section of Table 4, read-out: LLE PIM1 (IC50)), 33.8 µM; in data set [6] (third section of Table 4, read-out: LLE_PIM1 (IC50)), 33.8 µM. Moreover, the IC50 worked out at 19.2 µM in [7]; 25.5 µM in data set [8]; 23.8 µM in data set [9]; 5.15 µM in data set [10]; 18.7 µM in data set [11]; 11.9 µM in data set [12].
`NS(=O)(=O)c1cncc(-c2nc(NCc3ccccn3)c3c(-c4ccccc4)cccc3n2)c1` [Example 7, 5-(5-Phenyl-4-(pyridin-2-ylmethylamino)quinazolin-2-yl)pyridine-3-sulfonamide] displayed an inhibition at 0.3 µM in [1] of 95.7%. Moreover, in data set [5], the half-inhibitory concentration (IC50) is not below 50 µM. The brain penetration result in [13] was “surprisingly low degree of brain penetration across species”.
Compound `COc1ccc(-c2nc(NCc3ccccn3)c3c(-c4ccccc4)cccc3n2)cn1` [Example 105] displayed an inhibition at 0.3 µM in data set [1] of 98.7%.
On the same count and under the same terms, as for `Clc1nc(NCc2ccccc2)c2c(-c3ccccc3)cccc2n1` [Example 42], the figure is 96.4%; as for `FC(F)(F)c1ccccc1CNc1nc(Cl)nc2cccc(-c3ccccc3)c12` [Example 137], 55.6%; as for `Nc1ccc(-c2nc(NCc3ccccn3)c3c(-c4ccccc4)cccc3n2)cn1` [Example 32], 53.1%.
The same measure, in the same setting: as for `COc1cncc(-c2nc(NCc3ccccn3)c3c(-c4ccccc4)cccc3n2)c1` [Example 29], the figure is 65.3%; as for `Fc1ccc(CNc2nc(-c3cncnc3)nc3cccc(-c4ccccc4)c23)nc1` [Example 111], 61.5%; as for `c1ccc(-c2cccc3nc(-c4ccncc4)nc(NCc4ccccn4)c23)cc1` [Example 31], 98.2%.
On the same count and under the same terms, as for `c1ccc(-c2nc(NCc3ccccn3)c3c(-c4ccccc4)cccc3n2)cc1` [Example 50], the figure is 96.1%.
As to `c1ccc(-c2cccc3nc(-c4cncnc4)nc(NCc4ccccn4)c23)cc1` [Example 1, 5-Phenyl-N-(pyridin-2-ylmethyl)-2-(pyrimidin-5-yl)quinazolin-4-amine], the IC50 in [5] is 23.9 µM; in data set [14], not below 50 µM.
For `c1ccc(CNc2nc(-c3cncnc3)nc3cccc(-c4ccccc4)c23)cc1` [Example 40], the inhibition at 0.3 µM in data set [1] was determined as 59.8%.
As for `Fc1ccc(CNc2nc(Cl)nc3cccc(-c4ccccc4)c23)nc1` [Example 110], in [1], the inhibition at 0.3 µM stood at 51.8%.
The same measure, in the same setting: as for `Cc1nc(NCc2ccccn2)c2c(-c3ccccc3)cccc2n1` [Example 22], the figure is 60.4%.
